In brackets after ≈: the same amount, converted by molar mass.
What was measured:
human cancer cell lines = experiment: in vitro cytotoxic activities against several human cancer lines (panel summary); type: cell-based; conditions: for cytotoxic activity against cancer cell lines (in words): especially Hep3B and MDA-MB-231
Method: (§1) Human liver (HepG2 and Hep3B), breast (MCF-7 and MDA-MB-231), and lung (A549) cancer cell lines were propagated in RPMI-1640 medium supplement with 10% (v/v) FBS, 100 U/mL penicillin and 100 µg/mL streptomycin at 37° C. in a humidified atmosphere of 5% CO2 and 95% air. The culturing medium is changed every three days. Upon confluency, cells were subcultured to confluency, and used for experiments. The experimental period is determined according to the aim of experiment.
(§2) Cytotoxicity is measured by the MTT calorimetric method. Cells were seeded at densities of 5,000-10,000 cells/well in 96-well tissue culture plates. On day two, cells are treated with test compounds for another 72 hrs. After drug treatment, attached cells were incubated with MTT (0.5 mg/mL) for 1 hr and subsequently solubilized in DMSO. The absorbency at 550 nm is then measured using a microplate reader. The IC50 is the concentration of agent that reduces the cell viability by 50% under the experimental conditions, and the cytotoxic compound, Doxorubicin, is used as a positive control.
It is known that both the protoapigenone compound and its derivatives synthesized by a chemical method have cytotoxic effect against cancer cells, similar to nature protoapigenone compound extracted from a plant.

MCF-7 = experiment: MTT cytotoxicity assay, MCF-7; type: cell-based; conditions: human breast cancer cells, 72 hrs treatment
Method: as §1, §2

Hep3B = experiment: MTT cytotoxicity assay, Hep3B; type: cell-based; conditions: human liver cancer cells, 72 hrs treatment
Method: as §1, §2

A549 = experiment: MTT cytotoxicity assay, A549; type: cell-based; conditions: human lung cancer cells, 72 hrs treatment
Method: as §1, §2

MDA-MB-231 = experiment: MTT cytotoxicity assay, MDA-MB-231; type: cell-based; conditions: human breast cancer cells, 72 hrs treatment
Method: as §1, §2

HepG2 = experiment: MTT cytotoxicity assay, HepG2; type: cell-based, Human; conditions: for IC50 HepG2: human liver cancer cells, MTT, 72 hrs treatment
Method: as §1, §2

[1] = tested on: human cancer cell lines (MCF-7, MDA-MB-231, Hep G2, Hep 3B, A549); conditions: compound derived from Thelypteris torresiana; Planta Medica 71:867-870, 2005; cited from earlier work

In the case of O=C1C=CC(O)(c2cc(=O)c3ccccc3o2)C=C1 [Compound 8a, 2-(1-hydroxy-4-oxocyclohexa-2,5-dienyl)-4H-chromen-4-one], the “cytotoxic activity against cancer cell lines (in words)” value (“cytotoxic activity” for short) (human cancer cell lines) is reported as “significant cytotoxic activity”.

With COC1(c2cc(=O)c3ccccc3o2)C=CC(=O)C=C1 [Compound 8b, 1′-methoxyprotoflavonoen] the “IC50 MCF-7” value (MCF-7) was 2.14 µg/mL (≈ 7.98 µM), the “IC50 Hep3B” value (Hep3B) was 1.45 µg/mL (≈ 5.41 µM) and the “IC50 A549” value (A549) was over 20 µg/mL. For the same molecule, the “IC50 MDA-MB-231” value (MDA-MB-231) was 1.47 µg/mL (≈ 5.48 µM) and the “IC50 HepG2” value (HepG2) was 10.95 µg/mL (≈ 40.8 µM).

For O=C1C=CC(O)(c2cc(=O)c3c(O)cccc3o2)C=C1 [Compound 10a, 2-(1-hydroxy-4-oxocyclohexa-2,5-dienyl)-5-hydroxy-4H-chromen-4-one], the “cytotoxic activity” value (human cancer cell lines) was “significant cytotoxic activity”.

For COC1(c2cc(=O)c3c(C)cccc3o2)C=CC(=O)C=C1 [Compound 10b, 1′-methoxy-5-methylprotoflavonone], the “IC50 MCF-7” value (MCF-7) was 1.55 µg/mL (≈ 5.49 µM), the “IC50 Hep3B” value (Hep3B) was 0.66 µg/mL (≈ 2.34 µM) and the “IC50 A549” value (A549) was 16.36 µg/mL (≈ 58 µM). For the same molecule, the “IC50 MDA-MB-231” value (MDA-MB-231) was 0.54 µg/mL (≈ 1.91 µM) and the “IC50 HepG2” value (HepG2) was 7.64 µg/mL (≈ 27.1 µM).

With O=C1C=CC(O)(c2cc(=O)c3c(ccc4ccccc43)o2)C=C1 [Compound 15a, 3-(1-hydroxy-4-oxocyclohexa-2,5-dienyl)-1H-benzo[f]chromen-1-one] the “cytotoxic activity” value (human cancer cell lines) was “significant cytotoxic activity”.

In the case of COc1cc(O)c2c(=O)cc(C3(O)C=CC(=O)C=C3)oc2c1 [Compound 18a, 5-hydroxy-2-(1-hydroxy-4-oxocyclohexa-2,5-dienyl)-7-methoxy-4H-chromen-4-one], the “activity against the HepG2 human liver cancer cell line (in words)” value (HepG2; compared with most analogs) is reported as “significantly enhanced activity”, the “cytotoxic activity” value (human cancer cell lines) is reported as “significant cytotoxic activity” and the “potency against all five cancer cell lines, among the derivatives (in words)” value (human cancer cell lines; five cancer cell lines) is reported as “highest potency”.

For O=C1C=CC(O)(c2cc(=O)c3c(O)cc(O)cc3o2)C=C1 [protoapigenone], the “cytotoxic activities to human cancer cell lines (in words)” value [1] is listed as “strong cytotoxic activities”.
